We go through 14 compounds from patent publication US8168667B2 (Galapagos NV, priority 2006, dated 2012).

Like-named read-outs stand apart in the source and are kept apart here.

For data set [1], the target named is T1, human androgen receptor (hAR) (Homo sapiens, UniProt P10275).
T1 sequence (P10275 1-920): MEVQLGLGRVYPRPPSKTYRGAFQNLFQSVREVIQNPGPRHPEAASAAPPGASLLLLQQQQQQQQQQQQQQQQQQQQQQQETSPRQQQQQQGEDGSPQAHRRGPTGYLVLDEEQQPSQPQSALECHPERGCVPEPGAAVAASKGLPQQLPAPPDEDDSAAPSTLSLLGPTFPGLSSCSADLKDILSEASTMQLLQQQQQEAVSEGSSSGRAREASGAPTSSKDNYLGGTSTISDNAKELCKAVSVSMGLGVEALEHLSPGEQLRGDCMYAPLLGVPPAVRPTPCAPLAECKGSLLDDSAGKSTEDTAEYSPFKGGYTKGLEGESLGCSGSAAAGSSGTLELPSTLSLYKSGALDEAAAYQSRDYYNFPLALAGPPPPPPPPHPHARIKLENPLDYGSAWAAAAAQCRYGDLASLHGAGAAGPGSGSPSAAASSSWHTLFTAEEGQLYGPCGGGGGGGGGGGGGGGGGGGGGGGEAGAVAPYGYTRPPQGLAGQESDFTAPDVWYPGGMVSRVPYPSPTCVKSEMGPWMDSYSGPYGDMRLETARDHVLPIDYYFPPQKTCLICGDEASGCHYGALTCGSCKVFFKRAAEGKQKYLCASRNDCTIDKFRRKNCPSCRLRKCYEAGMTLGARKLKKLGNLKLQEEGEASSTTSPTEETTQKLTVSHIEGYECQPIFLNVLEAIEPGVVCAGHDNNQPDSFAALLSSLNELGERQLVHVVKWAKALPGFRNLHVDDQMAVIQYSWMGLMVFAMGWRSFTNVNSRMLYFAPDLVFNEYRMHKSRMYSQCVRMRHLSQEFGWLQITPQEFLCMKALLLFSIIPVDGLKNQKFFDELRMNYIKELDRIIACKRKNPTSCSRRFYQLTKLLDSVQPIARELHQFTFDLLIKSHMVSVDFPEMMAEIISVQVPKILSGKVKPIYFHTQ
As to the kind of experiment: Functional response test: hAR transactivation (luciferase reporter) in HALP2 cells. In kind it is cell-based. Particulars: for EC50: agonism, HALP2 cells (HeLa, hAR + ARE-luciferase), 20 hours at 37° C. Put shortly: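 HALP2 cells are HeLa cells stably transfected with CMV-driven hAR and a probasin ARE-luciferase reporter. They were seeded 24 h ahead, then exposed to compounds for 20 hours at 37° C in phenol red-free DMEM with 5% desteroided serum. Luciferase luminescence was measured after lysis; for antagonist mode, compounds were tested against increasing DHT concentrations.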
A general note: In a reporter assay the amount or activity of a reporter protein is the signal.

For data set [2], the system named is castrated immature young rats. Briefly: Adapted model of Hershberger's test (levator ani and ventral prostate weight). In kind it is in vivo, Sprague Dawley rats. Particulars: Rattus norvegicus, po, 96 h. The procedure:
The selective modulating activity of the androgen receptor was tested in a model of castrated immature young rats. This model, which is widely recognised for evaluating the anabolic effects of androgen compounds on the muscles and on the genitalia, has been described by Hershberger et al. 1953 Proc. Soc. Expt. Biol. Med. 83:175.
The method is based on the measurement of the well-known effects of androgens on the growth of the muscles and the accessory male sex organs in animals, and also in men. The consequences of castration appear in the form of a rapid involution and atrophy of the prostate and the seminal vesicles and of the anus-lifting muscle (levator ani). This effect may be completely compensated by an exogeneous administration of androgen, in particular of testosterone. The model is thus used to determine the capacity of the tested molecules to maintain the weight of the accessory sex and muscle organs in immature castrated rats, and therefore their androgenic efficacy.
Immature young Sprague Dawley rats (4 to 5 weeks old) weighing approximately 140-160 g (Charles River, Les Oncins, FRANCE) were distributed randomly in various groups and were kept in an environment at 22±2° C. with an alternating day/night cycle of 12 hours and ad libitum access to food and drink.
On day 0, that is, seven days before commencement of the first treatment, the rats were weighed individually then anaesthetised with an intraperitoneal dose of Ketamine/xylazine (85/15 mg/kg, approximately 2 ml/kg). Each animal was then placed on a sterile field and the abdomen and the scrotum were disinfected with Betadine and 70% alcohol. In the case of the orchidectomised control animals (ORX), the testicles were removed via an incision in the middle of the scrotum. A sterile suture was then made to ligature the supra-testicular portion of the tissue prior to surgical section of each testicle. The groups of animals to be treated by the tested compounds were operated on in an identical manner. In the case of the intact control animals (SHAM), the testicles were similarly extracted and reintroduced delicately to their original location. The site of surgical intervention was then sutured using sterile suture thread, and the site was disinfected again by application of Betadine. Each animal was then kept under a sterile pad until it awoke, before being returned to its cage. The animals were kept in an environment at 22±2° C. with an alternating day/night cycle of 12 hours and ad libitum access to food and drink. The animals were treated with the molecules to be tested from post-surgery day 7 and until day 10 preceding sacrifice (day 11).
The rats were split into groups and treated daily from day 7 to day 10 under the conditions defined below: • 1. SHAM control group: Vehicle (0.5% aqueous methyl cellulose) administered per os. • 2. ORX control group: Vehicle (0.5% aqueous methyl cellulose) administered per os. • 3. Treated ORX group: The tested compounds were administered individually per os in suspension in the vehicle described above, in a dose of 30 mg/kg.
After treatment for 4 successive days, the animals were decapitated using a guillotine. The levator ani and the ventral prostate were removed and weighed individually. For comparing inter-experimental data, the weight of each organ was standardised and expressed in milligrammes per 100 g of the weight of the animal (W). For each organ, the average of the standardised weights of the ORX control group was fixed by definition at 0% and the average of the standardised weights of the SHAM control group was fixed by definition at 100%. The efficacy of each product was expressed as a percentage and calculated using the following formula: (Wtreated−WORX)/(WSHAM−WORX)×100 A subsequent ANOVA test was used for statistical analysis to identify the differences between groups.

Setting [3] is: antagonism, concentration which increases the EC50 of the DHT by a factor of 2, Schild regression, HALP2 cells.
The mark [4] stands for this setting: read-out: anabolic protection efficacy with regard to levator ani.
Setting [5] is: read-out: androgenic efficacy with regard to the prostate.

Turning to `CCN1C(=O)N(c2ccc(C#N)c(C(F)(F)F)c2)C(=O)C1(C)c1ccc(O)cc1` (stereo not drawn) [Example 224, 4-[2,5-dioxo-3-ethyl-4-(4-hydroxyphenyl)-4-methylimidazolidin-1-yl]-2-trifluoromethylbenzonitrile], the melting point turned out to be 165 °C. In addition, the “KSchild (nM) potency” value in data set [1] (setting [3]) was 2 nM.

`COCN1C(=O)N(c2ccc(C#N)c(OC)c2)C(=O)C1(C)c1ccc(O)cc1` (stereo not drawn) [Example 223.1, 4-[4-(4-hydroxyphenyl)-3-methoxymethyl-4-methyl-2,5-dioxoimidazolidin-1-yl]-2-methoxybenzonitrile]: the melting point amounted to 141 °C. The “KSchild (nM) potency” value in data set [1] is on record as 4 nM.

Compound `CC1(c2ccc(O)cc2)C(=O)N(c2ccc(C#N)c(C(F)(F)F)c2)C(=O)N1CCF` (stereo not drawn) [Example 226, 4-[2,5-dioxo-3-(2-fluoroethyl)-4-(4-hydroxyphenyl)-4-methylimidazolidin-1-yl]-2-trifluoromethylbenzonitrile] gave a melting point of 157 °C. Moreover, the “KSchild (nM) potency” value in data set [1] is listed as 2.45 nM.

In turn, `COCN1C(=O)N(c2ccc(C#N)c(C(F)(F)F)c2)C(=O)[C@@]1(C)c1ccc(O)cc1` [Example 222.1, (R)-4-[2,5-dioxo-4-(4-hydroxyphenyl)-3-methoxymethyl-4-methylimidazolidin-1-yl]-2-trifluoromethylbenzonitrile] gave a melting point of 97 °C. The inhibition in vivo at 30 mg/kg in data set [2] (setting [4]) lay within 50 to 140%. Also, the inhibition in vivo at 30 mg/kg in data set [2] (setting [5]) lay within 5 to 70%. Besides, the “KSchild (nM) potency” value in data set [1] is 4 nM.

Turning to `CN1C(=O)N(c2ccc(Cl)c(Cl)c2)C(=O)C1(C)c1ccc(O)cc1` (stereo not drawn) [Example 25, 1-(3,4-dichlorophenyl)-3,4-dimethyl-4-(4-hydroxyphenyl)imidazolidine-2,5-dione], the melting point is 184 °C. Moreover, in data set [1], the “KSchild (nM) potency” value turned out to be 10.9 nM.

The compound `CN1C(=O)N(c2ccc(C#N)c(C(F)(F)F)c2)C(=O)C1c1ccc(O)cc1` (stereo not drawn) [Example 2, 4-[2,5-dioxo-4-(4-hydroxyphenyl)-3-methyl-imidazolidin-1-yl]-2-trifluoromethylbenzonitrile] came in with a melting point of 157.4 °C. Also, the “KSchild (nM) potency” value in data set [1] is given as 9.65 nM.

`CN1C(=O)N(c2ccc(Cl)c(Cl)c2)C(=O)C1(CO)c1ccc(O)cc1` (stereo not drawn) [Example 175, 1-(3,4-dichlorophenyl)-4-hydroxymethyl-4-(4-hydroxyphenyl)-3-methylimidazolidine-2,5-dione] came in with a melting point of 215.6 °C. In data set [2] (ORX rats, 30 mg/kg per os, 4 successive days, ORX = 0%, SHAM = 100%, read-out: anabolic protection efficacy with regard to levator ani), the inhibition in vivo at 30 mg/kg lay in the range of 50 to 140%. In addition, in data set [2] (ORX rats, 30 mg/kg per os, 4 successive days, ventral prostate, ORX = 0%, SHAM = 100%, read-out: androgenic efficacy with regard to the prostate), the inhibition in vivo at 30 mg/kg fell in the range of 5 to 70%. The EC50 in data set [1] was found to be 1.38 nM. The “KSchild (nM) potency” value in data set [1] (setting [3]) stood at 0.37 nM.

With `CCOCN1C(=O)N(c2ccc(C#N)c(C(F)(F)F)c2)C(=O)C1(C)c1ccc(O)cc1` (stereo not drawn) [Example 221, 4-[3-(ethoxymethyl)-4-(4-hydroxyphenyl)-4-methyl-2,5-dioxoimidazolidin-1-yl]-2-trifluoromethylbenzonitrile], the melting point was determined as 143 °C. In data set [1], the “KSchild (nM) potency” value was 5.66 nM.

In the case of `C#CCN1C(=S)N(c2ccc(C#N)c(C(F)(F)F)c2)C(=O)C1(C)c1ccc(O)cc1` (stereo not drawn) [Example 43, 4-[4-(4-hydroxyphenyl)-4-methyl-5-oxo-3-(2-propynyl)-2-thioxoimidazolidin-1-yl]-2-trifluoromethylbenzonitrile], the melting point was 169 °C. Besides, the “KSchild (nM) potency” value in data set [1] worked out at 0.49 nM.

In turn, `CN1C(=O)N(c2ccc(C#N)c(C(F)(F)F)c2)C(=O)C1(C)c1ccc(O)c(Cl)c1` (stereo not drawn) [Example 173, 4-[4-(3-chloro-4-hydroxyphenyl)-3,4-dimethyl-2,5-dioxoimidazolidin-1-yl]-2-trifluoromethylbenzonitrile] displayed a melting point of 161.1 °C. In addition, in data set [1], the “KSchild (nM) potency” value stood at 3 nM.

Compound `COc1cc(N2C(=O)N(C)[C@](C)(c3ccc(O)cc3)C2=O)ccc1C#N` [Example 156.2, (R)-4-[3,4-dimethyl-2,5-dioxo-4-(4-hydroxyphenyl)imidazolidin-1-yl]-2-methoxybenzonitrile] returned a melting point of 100 °C. The inhibition in vivo at 30 mg/kg in data set [2] (setting [4]) lay in the range of 50 to 140%. The inhibition in vivo at 30 mg/kg in data set [2] (setting [5]) fell in the range of 5 to 70%. The “KSchild (nM) potency” value in data set [1] came out at 1.5 nM.

Compound `CCCN1C(=O)N(c2ccc(C#N)c(C(F)(F)F)c2)C(=O)C1(C)c1ccc(O)cc1` (stereo not drawn) [Example 225, 4-[2,5-dioxo-4-(4-hydroxyphenyl)-4-methyl-3-propylimidazolidin-1-yl]-2-trifluoromethylbenzonitrile] gave a melting point of 125 °C. In data set [1], the “KSchild (nM) potency” value came out at 2.83 nM.

`CN1C(=O)N(c2ccc(Cl)c(Cl)c2)C(=O)C1(CF)c1ccc(O)cc1` (stereo not drawn) [Example 184, 1-(3,4-dichlorophenyl)-4-fluoromethyl-4-(4-hydroxyphenyl)-3-methylimidazolidine-2,5-dione]: the melting point is 167.2 °C. Further, the EC50 in data set [1] was determined as 4.9 nM. Moreover, the “KSchild (nM) potency” value in data set [1] (setting [3]) is 2.8 nM.

`C#CCC1(c2ccc(O)cc2)C(=O)N(c2ccc(C#N)c(C(F)(F)F)c2)C(=O)N1C` (stereo not drawn) [Example 177.3, 4-[2,5-dioxo-4-(4-hydroxyphenyl)-3-methyl-4-(2-propynyl)imidazolidin-1-yl]-2-trifluoromethylbenzonitrile] yielded a melting point of 122 °C. Besides, in data set [1], the “KSchild (nM) potency” value was determined as 15 nM.

A word on the melting point: it is the temperature of the solid-liquid transition. What is called EC50 is the concentration needed to bring the measured effect to its halfway point.
